{
  "source": "patent US20260102413A1",
  "about": "“TREATING PAIN ASSOCIATED WITH CENTRAL SENSITIZATION” (Medicon Pharmaceuticals, Inc., priority 2022, published 2026)",
  "key": {"[1]": {"system": "mice with paclitaxel-induced neuropathic pain (CIPN)", "test": "von Frey paw withdrawal threshold (mechanical allodynia), paclitaxel-induced CIPN / central sensitization, treatment of established pain, topical test compounds", "format": "in vivo, mouse", "settings": "paclitaxel mice; PS hydrogel 5%, sulindac 0.7% topical hind paws 3x/day from day 0; lidocaine 5% cream once 30 min before; pregabalin 10 mg/kg oral once 1 h before; day 14", "procedure": "Paw withdrawn, licking or shaking were considered positive responses.\n(§1) The first doses were administered 5 days after the last administration of paclitaxel (i.e., at day 0).\nThe PWT test was performed prior to the administration of paclitaxel (day −8) to establish the threshold in mice without neuropathic pain associated with CIPN (the value shown is an average of the PWT in all groups at day −8).\nPain associated with CIPN was established in line with the experiments disclosed herein. Mice were treated with naproxen 2.4% (equimolar to PN 5%), aspirin 1.7% (equimolar to PA2 5%); or ibuprofen 2.5% (equimolar to PI 5%) or vehicle applied topically to both hind paws 3×/day for 14 days.\nCIPN was induced in mice with chemotherapeutic agents using established protocols (Carozzi et al, 2010; Currie et al, 2019; Eldridge et al, 2020).\nThe first doses were administered 1 day after the last administration of paclitaxel (i.e., at day 0).\nas §1\nThe PWT test was performed on day 21, at the end of the experiment, but was also additionally determined on day 14 for LXIX."}, "[2]": {"system": "mice with chronic constriction injury of the left sciatic nerve (PTPN)", "test": "von Frey PWT, chronic constriction injury (CCI) model of PTPN, topical compounds", "format": "in vivo, mouse", "settings": "PS 5% gel, sulindac 0.7% gel on left paw 3x/day 14 days; pregabalin (10 mg/ml) oral gavage once 1 h before; day 14", "procedure": "The PWT test was performed following ligation, but prior to treatment to determine baseline values. The PWT was then further measured on day 14."}, "[3]": {"system": "mice with NTG-induced chronic migraine", "test": "von Frey PWT, NTG-induced chronic migraine model", "format": "in vivo, mouse", "from_the_text": "The NTG-induced chronic migraine model was used as described previously."}, "[4]": {"system": "mice with NTG-induced migraine", "test": "von Frey PWT, NTG-induced migraine model, oral or intraperitoneal compounds", "format": "in vivo, mouse", "settings": "oral 30 min after NTG: PS 50, sulindac 33, PN 65, naproxen 35 mg/kg; 30 min after administration", "procedure": "Phosphonaproxen (Formula VIII), and its parent compound, naproxen, were administered orally to each mouse group. All compounds were administered at equimolar doses. In particular, phosponaproxen was administered at 65 mg/kg, and naproxen was administered at 35 mg/kg, 30 minutes after NTG administration. The response of mechanical allodynia was tested 30 minutes after administration."}, "[5]": {"system": "BALB/c mice infected with HSV-1 KOS strain (PHN)", "format": "in vivo, mouse", "settings": "second experiment; sulindac 5% gel on both hind paws 3x/day for three days", "procedure": "PHN was induced in mice by infecting them with the HSV-1 KOS strain virus and following established protocols (Ou et al, Front Immunol, 14, 1026269, 2023; Takasaki et al, Anesthesiology, 96 (5), 1168-74, 2002).\n; Reckitt Benckiser). Three days later, HSV-1 (10^6 PFUs in 20 μl PBS) was inoculated on the shin of the right hind paw (5×5 mm) after scarification with sandpaper. The virus was applied directly to the scarified area. The contralateral hind paw was without inoculation. Mock infection was performed using the same virus inactivated by heating at 60° C. for 1 h.\nIn a second experiment, the effect of the parent compound, sulindac, was tested in the same mouse model. Five days post-inoculation, sulindac (as a 5% gel), or vehicle control were administered topically onto both hind paws of mice three times a day for three days.\nPHN was induced in mice by infecting them with the HSV-1 KOS strain virus in line with the previous Examples.\nFive days post-inoculation, NO-sulindac (Formula XLIV) (as a 5% gel), or vehicle control were administered topically onto both hind paws of mice three times a day for three days."}, "[6]": {"system": "mice with chronic constriction injury (PTPN)", "test": "von Frey PWT, CCI model of PTPN, orally administered compounds", "format": "in vivo, mouse", "settings": "oral once a day: PS 50, PSA 50, sulindac 33 mg/kg", "procedure": "Phospho-ibuprofen (PI) (Formula III), phospho-ibuprofen-amide (PIA) (Formula XI), ibuprofen and vehicle control were all administered orally, three times a day for 14 days. Their doses were as follows: PI 80 mg/kg, PIA 80 mg/kg, ibuprofen 40 mg/kg (all three are equimolar). […] Group 1: vehicle (n=5-8) • 2. Group 2: ibuprofen (n=5-8) • 3. Group 3: phospho-ibuprofen (PI) (n=5-8) • 4. Group 4: phospho-ibuprofen-amide (PIA) (n=5-8)"}, "[7]": {"test": "drug levels in proximal and distal half of the sciatic nerve after topical PS", "format": "in vivo, mouse", "settings": "paclitaxel-PN mice, PS 8% ointment 3x/d 2 wks; 30 min after last dose", "procedure": "In a separate experiment we studied 8 mice with paclitaxel-induced PN treated with PS 8% ointment 3×/d for 2 wks. Mice were euthanized as above 30 minutes after the last dose of PS. From these mice we harvested both sciatic nerves dividing each into proximal and distal halves, and combined the corresponding halves of every two animals for assay of drug levels."}, "[8]": {"system": "mice with paclitaxel-induced CIPN", "test": "thermal allodynia (paw withdrawal latency, radiant heat), paclitaxel CIPN model", "format": "in vivo, mouse", "settings": "oral PS 50 mg/kg, sulindac 33 mg/kg 3x/day, day 16 of treatment", "procedure": "Group 3: paclitaxel pluse sulindac (n=8)\nThermal allodynia was also determined for the mice study groups below (with 8 mice per group): • 1. Group 1: naïve mice (i.e. no paclitaxel) • 2. Group 2: paclitaxel only • 3. Group 3: paclitaxel plus vehicle • 4. Group 4: paclitaxel plus NO-sulindace • 5. Group 5: paclitaxel plus thiol-sulindac"}, "[9]": {"format": "in vivo, mouse", "settings": "all tissues except the sciatic nerve (higher) and DRG (equal)", "procedure": "At 0.5, 1, 3, 5, 12, 18, and 24 h, mice (n=4-5 mice/time point) were euthanized with CO2 inhalation. Blood was drawn immediately after death. Tissues, including paw skin, paw muscle, leg muscle, the sciatic nerve and lumbar DRG bilaterally were dissected quickly, immediately frozen in liquid nitrogen and stored at −80° C. until analyzed."}},
  "data": [
    {"smiles": "CC1=C(CC(=O)O)c2cc(F)ccc2/C1=C\\c1ccc([S+](C)[O-])cc1", "note": "(centres unmarked) [sulindac, reference compound]", "values": [
      {"measurement": "PWT, g Mean ± SEM", "setting": "[1]", "value": "0.62 ± 0.05", "unit": "g"},
      {"measurement": "PWT, g Mean ± SEM", "setting": "[2]", "value": "0.63 ± 0.07", "unit": "g"},
      {"measurement": "PWT, g Mean ± SEM, Day 11", "setting": "[3]; NTG 0.4 mg sublingual every two days x5, oral once a day 11 days: PS 50, sulindac 33 mg/kg, 30 min after administration", "value": "0.43 ± 0.03", "unit": "g"},
      {"measurement": "PWT, g Mean ± SEM, Baseline", "setting": "[3]; group baseline prior to NTG administration", "value": "1.80 ± 0.12", "unit": "g"},
      {"measurement": "PWT, g Mean ± SEM", "setting": "[4]", "value": "0.60 ± 0.04", "unit": "g"},
      {"measurement": "PWT, g Mean ± SEM, Post-inoculation and treatment", "setting": "[5]", "value": "0.56 ± 0.06", "unit": "g"},
      {"measurement": "PWT, g Mean ± SEM", "setting": "[6]; Day 6", "value": "Day 6 = 0.6 ± 0.03 g"},
      {"measurement": "PWT, g Mean ± SEM", "setting": "[6]; Day 14", "value": "Day 14 = 0.6 ± 0.0 g"},
      {"measurement": "Fold difference distal vs proximal", "setting": "[7]", "value": 8.5},
      {"measurement": "PWL, sec Mean ± SEM", "setting": "[8]", "value": "7.87 ± 0.7", "unit": "s"},
      {"measurement": "sulindac levels as % of those of PS", "setting": "[9]", "value": "around 25%"}
    ]}
  ]
}
